Square brackets hold non-standard residues; d marks the D form. Peptide text beside a SMILES is read from it. Nle = CCCC[C@H](N)C(=O)O
Assays:
Format in all cases: cell-based
[1] = tested on: HLF cells; test: Apoptosis by annexin V-FITC staining, flow cytometry; settings: for Percent Annexin V Positive Staining: 26 hours post treatment
Protocol: P53 was administered to the cells by the use of the replication defective adenoviral vector ACN53 described in Wills, et al., supra. The effect of varying concentrations of rAd-p53 (from […] to 2×10^9 rAd-p53 particles/ml of solution) was investigated in combination with CI-1 in a range of 5–20 μm. The effects of individual and combination treatment was determined in the in DLD1, RKO, HLF and SK-Hep1 cells was investigated in substantial accordance with the teaching of Examples 2 and 3 herein. The percentage of apoptotic cells was determined at 17 hours post treatment (with the exception of U87 cells (24 hours) and HeLa cells (68 hours)) with annexin V positive staining. The results are presented in graphical format in FIG. 3 of the attached drawings. In brief, the results were as follows:
To quantitate the increased efficacy of rAd-p53 induced cell killing in tumor cell lines in response to CI-1 treatment, HLF cells were infected with increasing concentrations of rAd-p53 with or without 10 μM CI-1, and assayed for percentage apoptotic cells by annexin V-FITC staining 42 hours post-treatment in substantial accordance with the teaching of Example 3 herein. […] No increase in annexin V-FITC positive cells was detected at 1×10^5 particles/ml rAd-p53 with or without 10 μM CI-1. At 1×10^6 particles/ml rAd-p53, the percentage apoptotic cells without CI-1 was 14%, while 40% of annexin V positive cells was detected when cell were treated with 10 μM CI-1. At a concentration of 1×10^7 ACN53 particles/ml, 17% annexin V positive without and 63% with 10 μM CI-1 was detected. At 1×10^8 particles/ml, 52% were annexin V positive without and 70% positive with inhibitor treatment. At a dose of 1×10^9 particles of rAd-p53, however, the percentage annexin V positive was about the same for both 77% without and 74% with 10 μM CI-1. […] concentration of rAd-p53 was sufficient to induce approximately 50% cell death, while only a 1×10^7 particle/ml concentration rAd-p53 was needed to induce approximately the same percentage of cell death when 10 μM CI-1 as added.
The effect of an inhibitor of μ-calpains, CI-1 (N-acetyl-leu-leu-norleucinal), was investigated for its ability to enhance p53 mediated apoptosis in tumor cell lines having p53+ and p53− status listed in Table1. Each cell line was treated with 5–50 μM CI-1 for 17–26 hours. To detect a G0/G1 block, bromodeoxyuridine (BrdU) incorporation followed by flow cytometric analysis was done 17 hours post-treatment as described in Example 4 herein. […] The results of these experiments are presented in FIGS. 1 and 2 of the attached drawings. In FIG. 1, each point on the graph represents percentage annexin V positive after background percentage (DMF alone) was subtracted.
An aliquot containing approximately 1×10^6 cells of each type was placed in a T-225 flask. The effect of varying concentrations of rAd-p53 (from 1×10^7 to 2×10^9ACN53 particles/ml of solution) was investigated in combination with CI-1 in a range of 5–20 μM. In each instance, the cell line was infected with 1×10^7–1×10^9 particles/ml of cell culture with the ACN53 using the empty cassette virus (ZZCB) as a control. In each instance, the cells were exposed to the virus for a period of one hour. At the end of this time, the virus was washed off the from the cells and fresh media containing an appropriate concentration of CI-1 was added.
HLF cells were infected at increasing log concentrations of rAd-p53 ranging from 1×10^5 to 1×10^9 for one hour at which time virus was washed off and replaced with fresh media (viral infection with no treatment) or with 10 μM calpain inhibitor 1. Cells were assayed for apoptosis by annexin V-FITC staining at 24 and 42 hours post-infection.
CI-1 was obtained from Boehringer-Mannheim Biochemicals (Indianapolis, Ind.). The CI-1 containing media was prepared as follows. CI-1 was diluted in dimethylformamide (DMF) to a concentration of 33.3 μM/μl. […]

[2] = tested on: p53 and p21 protein levels in HLF cells; test: Western blot of p53 and p21 levels; settings: 17 hours
Protocol: (§1) FIG. 5 contains the results of Western blots measuring the levels of p53 and p21 in rAd-p53 infected cells in the presence of varying concentrations of CI-1. Above each lane is a “+” of “−” which indicates if the cells were pulsed with 1×10^9 rAd-p53 for one hour (+) or not (−). The row of numbers below indicates the μM concentration of CI-1 to which the cells were exposed at 17 hours post-infection. The upper row of chemiluminescent signals provides the levels of p53 while the lower row of chemiluminescent signals provides the levels of p21. […] When 5 μM CI-1 was added with rAd-p53, the levels of p53 increased two fold, as quantitated on NIH imaging.
(§2) At 17 hours post treatment, cells were lysed in protein lysis buffer (50 mM tris, 250 mM NaCl, 50 mM NaF, 5 mM EDTA and 0.1% NP-40 with 1 mM PMSF). Cell lysates were subjected to electrophoresis. 10 μg of protein was added per lane on a 12% polyacrylamide gel and transfered onto nitrocellulose membranes. The membranes were subjected to western blot analysis using antibodies specific for p53 or p21 (Calbiochem, p53 antibody Ab-6, and p21 antibody Ab-7). HRP-conjugated secondary antibody (Amersham) was added for one hour at which time the blots were washed. Blots were developed using enhanced chemiluminescence detection system (Amersham) and quantitated using NIH imaging analysis.

[3] = tested on: p53 and p21 protein levels in RKO cells; test: Western blot of p53 and p21 levels; settings: 17 hours
Protocol: as §1, §2

In the case of `CCCC[C@@H](C=O)NC(=O)[C@H](CC(C)C)NC(=O)[C@H](CC(C)C)NC(C)=O` [CI-1, N-acetyl-leu-leu-norleucinal] (Ac-Leu-Leu-[Nle]-aldehyde), the “Percentage of Cells Undergoing Apoptosis” value ([1]; 10 μM CI-1, 17 hours post treatment) is reported as 7%, the “annexin V staining” value ([1]; 10 μM CI-1 alone, 42 hours post-treatment) is reported as 3% and the “Percent Annexin V Positive Staining” value ([1]; CI-1 10 μM) is reported as 27%. For the same compound, the “Percent Annexin V Positive Staining” value ([1]; CI-1 20 μM) was 27%, the “Percent Annexin V Positive Staining” value ([1]; CI-1 30 μM) was 33% and the “Percent Annexin V Positive Staining” value ([1]; CI-1 40 μM) was 20%. For the same compound, the “Percent Annexin V Positive Staining” value ([1]; CI-1 50 μM) was 21%, the “decrease in the particles/ml of rAd-p53 needed to induce approximately 50% cell death” value ([1]; treatment with 10 μM CI-1 at 42 hours) was “approximately two log decrease” and the “increase in levels of p53 (NIH imaging)” value ([2]; 5 μM CI-1 added with 1×10^9 rAd-p53, versus rAd-p53 alone) was “two fold”. The “increase in levels of p53 and p21” value ([2]; 10 μM CI-1 added with 1×10^9 rAd-p53) was “approximately three fold”, the “increase in p53 and p21 levels” value ([3]; 5 μM CI-1 with 1×10^9 rAd-p53) was “two fold increase” and the “increase in p53 levels over rAd-p53 alone” value ([3]; 10 μM CI-1 with 1×10^9 rAd-p53) was “about a five fold increase”.

— patent publication US7001770B1, “Calpain inhibitors and their applications” (priority 1998, dated 2006)
